In brackets after ≈: the same amount, converted by molar mass. Where two headings read alike, the source gives them in different places.
How the values were obtained:
[1] = test system: Measles virus (strain Edmonston); test: microbe, parasite or virus in culture; format: cell-based
HeLa cells = test: cell viability of uninfected HeLa cells; settings: Example 11
[2] = test system: Dengue virus (strain DENV2New Guinea); test: inhibition of virus-induced CPE, Dengue virus in Huh7 cells; format: cell-based; settings: Huh-7, 4 h pre-incubation
Experimental: The Dengue virus strain DENV2New Guinea was obtained from ATCC (VR-1584) and was grown in Rhesus monkey kidney cells for the production of stock virus pools.
(§1) Cell viability determination as well as EC50 and TC50 calculations were performed as described in Examples 6 and 8.

Huh7 cells = test: cell viability of uninfected Huh7 cells; settings: Example 12 (Dengue assay)
MRC-5 cells = settings: for cytotoxic effect on the viability of the cell control: Example 6
[3] = test system: mice challenged with lipopolysaccharide (LPS); test: LPS induced lung neutrophilia model, BALF cell counts (Example 2); settings: 4 h post LPS
in vitro [4] = settings: dog
[5] = cell viability of uninfected HeLa cells; settings: human
[6] = test system: mice challenged with lipopolysaccharide (LPS); test: LPS induced lung neutrophilia model, BALF cell counts 4 h post LPS (Example 1)
in vitro [7] = settings: human
[8] = cell viability of uninfected Huh7 cells; settings: human
[9] = test system: influenza A/Puerto Rico/8/34 (H1N1); format: in vivo, BALB/c mice
[10] = test system: Zika virus (strain ZIKVPRVABC59); test: inhibition of virus-induced CPE, Zika virus in Huh7 cells; format: cell-based; settings: Huh-7, 4 hour pretreatment, MOI 0.001, Lefamulin as acetate
Experimental: The Zika virus strain PRVABC59 obtained from ATCC (catalog VR-1843) […] was grown in Rhesus monkey kidney cells for the production of stock virus pools.
as §1

[11] = test system: TNF-α, IL-6, IL-1β, GM-CSF, CXCL1, CXCL2, CCL2, MMP9 in lung homogenate; test: LPS induced lung neutrophilia model, marker concentrations in lung homogenate (Example 2)
[12] = test system: alpha coronavirus 229E (HCoV-229E); test: inhibition of virus-induced CPE, CoV229E in MRC-5 cells (XTT); format: cell-based; settings: for EC50: Human coronavirus 229E, MOI 0.001, read-out: EC50
Experimental: The antiviral compound Remdesivir served as positive control.
Lefamulin (as acetate) was evaluated using different treatment conditions of 4 h, 1 h or 0 h incubation prior to virus addition and addition 1 h after infection For this particular set of experiments, coronavirus was diluted 1:200 in assay medium and added at 100 μL/well to achieve approximately 90% cell killing in the untreated virus control wells (MOI of 0.001).

HEp2 cells = test: cell viability of uninfected HEp2 cells (XTT); settings: Example 8
[13] = test system: human rhinovirus strain HRV16 strain 11757; test: inhibition of virus-induced CPE, human rhinovirus in H1-HeLa cells; format: cell-based; settings: Human rhinovirus sp., 4 hour pretreatment, MOI 0.0005, Lefamulin as acetate
Experimental: as §1

[14] = test system: human respiratory syncytial virus (strain RSVA2); settings: Example 8
[15] = test system: human respiratory syncytial virus (strain RSVA2); test: inhibition of virus-induced CPE, RSVA2 in HEp2 cells (XTT); settings: human respiratory syncytial virus
[16] = test system: influenza virus (strain A/PR/8/34); test: inhibition of virus-induced CPE, influenza virus in MDCK cells; format: cell-based; settings: unidentified influenza virus, PR/8, MDCK, read-out: maximum inhibition of the influenza mediated CPE
[17] = Lefamulin 35, 70 and 140 mg/kg SC half an hour prior to IN LPS, vs LPS challenge (p<0.05)
[18] = high dose: 105 mg/kg/day SC in three injections until day 3, then 70 mg/kg twice daily
[19] = high dose, Day 6, vs vehicle treated control
[20] = 10, 30, or 100 mg/kg SC pre-treatment
[21] = 10, 30, or 100 mg/kg SC pre-treatment, 4 h post LPS

Structure (SMILES): NC(=O)c1ncn([C@@H]2O[C@H](CO)[C@@H](O)[C@H]2O)n1 [Ribavirin, reference compound]
- EC50 ([1]; HeLa cells, 4 h pre-incubation, MOI 0.008): 1.88 µg/mL
- TC50 (HeLa cells): 21.6 µg/mL (≈ 88.4 µM)
- EC50 ([2]; MOI 0.001): 4.73 µg/mL
- TC50 (Huh7 cells): 48.5 µg/mL (≈ 199 µM)

Structure (SMILES): C=C[C@]1(C)C[C@@H](OC(=O)CS[C@@H]2CC[C@@H](N)C[C@H]2O)[C@]2(C)C(C)CC[C@]3(CCC(=O)[C@H]32)[C@@H](C)[C@@H]1O (stereo partly drawn) [Lefamulin, 14-O-{[(1R, 2R, 4R)-4-amino-2-hydroxy-cyclohexylsulfanyl]-acetyl}-mutilin]
- cytotoxic effect on the viability of the cell control (MRC-5 cells; 10 μM): no cytotoxic effect
- cytotoxic effect on the viability of the cell control (MRC-5 cells; 50 μM): cytotoxic effect
- CC50 (MRC-5 cells; human, 6 days): > 50 µM
- total cell counts in BALF, significance of change ([3]; 100 mg/kg SC, p<0.05): statistically significant
- total cell counts in BALF ([3]; 10, 30, or 100 mg/kg SC 30 min before LPS): reduced dose-dependently
- lymphocyte cell counts in BALF ([3]; 10, 30 and 100 mg/kg SC): not significantly affected
- macrophage cell counts in BALF ([3]; 10, 30 and 100 mg/kg SC): not significantly affected
- neutrophil cells in BALF ([3]; 10, 30 and 100 mg/kg SC): dose-dependent and significant reduction
- EC50 ([1]; Measles morbillivirus, HeLa): 0.89 µM
- CC50 (in vitro [4]): 23.8 µM
- CC50 at 6 days [5]: 72.7 µM
- neutrophil cell count in BALF [6, 17]: statistically significant reduction
- total cell count in BALF [6, 17]: statistically significant reduction
- cell influx (BALF) ([6]; highest dose of 140 mg/kg SC): Almost complete impairment
- CC50 (in vitro [7]): 24.1 µM
- EC50 ([2]; MOI 0.001, Lefamulin as acetate): 6.79 µM
- CC50 at 6 days ([8]; TC50, Example 12 (Dengue assay)): 23.3 µM
- CC50 at 6 days ([8]; TC50, Example 13 (Zika assay)): 23.4 µM
- B cells (BALF) ([9]; Day 6): reduction was only significant at the highest dose
- infiltration of CD4 cells in the lung ([9]; Day 6, both doses tested): decreased
- infiltration of CD8 cells in the lung ([9]; Day 6, both doses tested): decreased
- infiltration of NK cells in the lung ([9]; Day 6, both doses tested): decreased
- neutrophils infiltration (BALF) ([9]; Day 6, both doses tested): significantly decreased
- total immune cell infiltration in the lung (BALF flow cytometry) ([9]; Day 6, both doses tested, p<0.05): significantly decreased
- inflammatory monocyte infiltration in the lung ([9]; Day 6, higher dose): significantly reduced
- lung viral titres (TCID50 on MDCK cells) ([9]; Lefamulin at both doses, Oseltamivir positive control, Day 3 and Day 6, vs vehicle treated control): reduced
- bodyweight ([9]; at the investigated doses (low and high dose SC)): did not have a significant effect
- clinical scores compared to vehicle [9, 18]: increase
- survival compared to vehicle [9, 18]: decrease
- alveolar inflammation (histopathology) [9, 19]: significant reduction
- bronchial degeneration (histopathology) [9, 19]: significant reduction
- overall histopathology score [9, 19]: significant reduction
- macroscopically evaluated lung consolidation ([9]; low dose: 35 mg/kg SC twice daily, Day 6): significant improvement
- survival until day 6 ([9]; lower dose: 35 mg/kg SC twice daily, Day -1 to Day 6): 90%
- EC50 [10]: 2.78 µM
- cytotoxicity (MDCK cells; 50 μM): cytotoxicity was observed
- concentrations cytotoxic to MDCK cells (MDCK cells; Example 15): greater than 23 μM
- MMP9 concentrations in lung homogenate ([11]; 10 mg/kg SC): did not alter
- reduction of MMP9 levels in lung homogenate ([11]; 30 mg/kg SC): 26%
- reduction of MMP9 levels in lung homogenate ([11]; 100 mg/kg SC): 53%
- reduction of IL-1β level in lung homogenate ([11]; 100 mg/kg SC pre-treatment): 24%
- CXCL1 level in lung homogenate [11, 20]: significantly reduced
- CXCL2 level in lung homogenate [11, 20]: significantly reduced
- reduction of IL-6 level in lung homogenate [11, 21]: ≥ 50%
- reduction of TNF-α level in lung homogenate [11, 21]: ≥ 50%
- GM-CSF in lung homogenate ([11]; all doses tested (10, 30, 100 mg/kg SC)): almost completely inhibited
- LPS-induced CCL2 increase in the lung homogenate ([11]; all investigated doses (10, 30, 100 mg/kg SC), Valnemulin particularly at 10 and 30 mg/kg): completely inhibited
- reduction of viral CPE ([12]; 10 µM): 91.82%
- reduction of viral CPE ([12]; 1 h, 50 µM): 86.83%
- EC50 ([12]; MRC5, 1 h, Example 7, 1 h post-infection): 15.1 µM
- EC50 ([12]; MRC5, Example 6, MRC-5 cells, 4 h incubation prior to virus, 6 days post-infection, Lefamulin as acetate, Tiamulin as fumarate): 3.87 µM
- EC50 ([12]; MRC5, Example 7, 0 h pretreatment): 3.08 µM
- EC50 ([12]; MRC5, Example 7, 1 h pretreatment): 2.16 µM
- EC50 ([12]; MRC5, Example 7, 4 h pretreatment): 2.18 µM
- cytotoxic effect on the viability of the cell control (HEp2 cells; 10 μM and 50 μM): no cytotoxic effect
- cytotoxic effect on the viability of the cell control (HEp2 cells; 100 μM): cytotoxic effect
- EC50 [13]: 9.34 µM
- reduction of viral CPE ([14]; 10 μM): 92.17%
- reduction of viral CPE ([14]; 50 μM): 100%
- EC50 ([15]; HEp-2, Example 8, HEp2 cells, 4 h incubation prior to virus, MOI 0.001, 6 days post-infection, Lefamulin as acetate, Tiamulin as fumarate): 5.34 µM
- EC50 ([15]; HEp-2, Example 9, MOI 0.0004): 2.34 µM
- EC50 ([15]; HEp-2, Example 9, MOI 0.0008): 28.7 µM
- EC50 ([15]; HEp-2, Example 9, MOI 0.001): 32.3 µM
- EC50 ([15]; HEp-2, Example 9, MOI 0.003): > 63.2 µM
- inhibition at 5 µM [16]: 18.4%

Source: patent US20230174472A1, “THERAPEUTIC USE OF PLEUROMUTILINS” (priority 2020, published 2023)
